Experimental data published in patent US10730880B2, “4,6-substituted-pyrazolo[1,5-a]pyrazines as Janus kinase inhibitors” (Array BioPharma Inc., priority 2014, dated 2020).
Like-named read-outs stand apart in the source and are kept apart here.

How the values were obtained:
Assay type in all cases: biochemical
JAK2 = JAK2 (Homo sapiens (Human), UniProt O60674); assay: JAK2 Inhibition Assay (Omnia kinase fluorescence peptide substrate assay)
From the text: (§1) The assays described in Examples A, B, C and D for the determination of Tyk2, JAK1, JAK2 and JAK3 kinase activity, respectively, utilized the Omnia® Kinase fluorescence peptide substrate-based technology (Invitrogen). The specific components of the assay mixture are described in Examples A, B, C and D. In these assays, Mg^2+ is chelated upon phosphorylation of the Omnia peptide by the kinase to form a bridge between the chelation-enhanced fluorophore Sox and the phosphate, resulting in an increase in fluorescence emission at 485 nm when excited at […]. The reactions were therefore read at excitation 360 nm and emission was measured at 485 nm every 50 seconds for 45 minutes using a PerkinElmer EnVision Multilabel Plate Reader.
(§2) The final buffer conditions for Tyk2, JAK1, JAK2, and JAK3 assays were as follows: 25 mM HEPES, pH 7.4, 10 mM MgCl2, 0.01% Triton X-100 and 1 mM DTT.
(§3) Two-μL aliquots of these were transferred to a fresh plate for a ten-fold intermediate dilution with assay buffer. Five-μL aliquots of the diluted compounds were then transferred to 20-μL of assay mixtures described in Examples A, B, C and D for a final concentration of DMSO of 2%. […] For each plate, percent of control (POC) values were calculated for each well according to the following equation:
(§4) where Xmax=Average Uninhibited Controls • Xmin=Average Background IC50's were estimated from the POC's using a standard 4-parameter logistic model:
(§5) where A=Minimum Y (Bottom Asymptote) • B=Maximum Y (Top Asymptote) • C=EC50 • D=Slope Factor • X=Compound Concentration (nM) • Y=POC
(§6) The IC50 is defined as the concentration of inhibitor at which the POC equals 50 for the fitted curve.
(§7) Compounds of Formula I were screened for their ability to inhibit JAK2 using the general enzyme inhibition assay method, in which the assay mixture contained 1 mM ATP, 10 μM Omnia® Y7 peptide (Catalog # IVGN KNZ3071C, Invitrogen Corporation, Carlsbad, Calif.) and 4 nM JAK2 in a total volume of 25 μL. JAK2 was purchased from Invitrogen Corporation, Carlsbad, Calif. (catalog # IVGN PV4288).

Human Tyk2 kinase domain = Human Tyk2 kinase domain (Homo sapiens (Human), UniProt P29597); assay: Tyk2 Inhibition Assay (Omnia kinase fluorescence peptide substrate assay)
Sequence of Human Tyk2 kinase domain (P29597 886-1187): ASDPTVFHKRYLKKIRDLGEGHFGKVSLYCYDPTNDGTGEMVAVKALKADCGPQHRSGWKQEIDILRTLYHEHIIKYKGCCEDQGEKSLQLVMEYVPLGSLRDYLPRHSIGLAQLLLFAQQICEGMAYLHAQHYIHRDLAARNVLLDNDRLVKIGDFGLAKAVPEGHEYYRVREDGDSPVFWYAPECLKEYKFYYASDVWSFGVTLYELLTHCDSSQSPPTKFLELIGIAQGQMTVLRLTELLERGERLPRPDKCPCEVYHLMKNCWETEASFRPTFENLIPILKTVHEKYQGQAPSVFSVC
From the text: as §1, §2, §3, §4, §5, §6
Compounds of Formula I were screened for their ability to inhibit Tyk2 using the general enzyme inhibition assay method, in which the assay mixture contained 1 mM ATP, 8 μM Omnia® Y12 peptide (Catalog # IVGN KPZ3121C; Invitrogen Corporation, Carlsbad, Calif.) and 1 nM Tyk2 in a total volume of 25 μL. Human Tyk2 kinase domain, comprising amino acids 886 to 1187 with 10 additional histidine residues (histidine tag) on the carboxy terminus, was expressed and purified from bacculovirus in-house at Array BioPharma Inc. (Boulder, Colo.). The histidine tag was cleaved after purification using standard conditions.

JAK3 = JAK3 (Homo sapiens (Human), UniProt P52333); assay: JAK3 Inhibition Assay (Omnia kinase fluorescence peptide substrate assay); details: read-out: JAK3 Enzyme IC50 1 mM ATP, averaged IC50 ranges
Sequence of JAK3 (P52333 whole entry): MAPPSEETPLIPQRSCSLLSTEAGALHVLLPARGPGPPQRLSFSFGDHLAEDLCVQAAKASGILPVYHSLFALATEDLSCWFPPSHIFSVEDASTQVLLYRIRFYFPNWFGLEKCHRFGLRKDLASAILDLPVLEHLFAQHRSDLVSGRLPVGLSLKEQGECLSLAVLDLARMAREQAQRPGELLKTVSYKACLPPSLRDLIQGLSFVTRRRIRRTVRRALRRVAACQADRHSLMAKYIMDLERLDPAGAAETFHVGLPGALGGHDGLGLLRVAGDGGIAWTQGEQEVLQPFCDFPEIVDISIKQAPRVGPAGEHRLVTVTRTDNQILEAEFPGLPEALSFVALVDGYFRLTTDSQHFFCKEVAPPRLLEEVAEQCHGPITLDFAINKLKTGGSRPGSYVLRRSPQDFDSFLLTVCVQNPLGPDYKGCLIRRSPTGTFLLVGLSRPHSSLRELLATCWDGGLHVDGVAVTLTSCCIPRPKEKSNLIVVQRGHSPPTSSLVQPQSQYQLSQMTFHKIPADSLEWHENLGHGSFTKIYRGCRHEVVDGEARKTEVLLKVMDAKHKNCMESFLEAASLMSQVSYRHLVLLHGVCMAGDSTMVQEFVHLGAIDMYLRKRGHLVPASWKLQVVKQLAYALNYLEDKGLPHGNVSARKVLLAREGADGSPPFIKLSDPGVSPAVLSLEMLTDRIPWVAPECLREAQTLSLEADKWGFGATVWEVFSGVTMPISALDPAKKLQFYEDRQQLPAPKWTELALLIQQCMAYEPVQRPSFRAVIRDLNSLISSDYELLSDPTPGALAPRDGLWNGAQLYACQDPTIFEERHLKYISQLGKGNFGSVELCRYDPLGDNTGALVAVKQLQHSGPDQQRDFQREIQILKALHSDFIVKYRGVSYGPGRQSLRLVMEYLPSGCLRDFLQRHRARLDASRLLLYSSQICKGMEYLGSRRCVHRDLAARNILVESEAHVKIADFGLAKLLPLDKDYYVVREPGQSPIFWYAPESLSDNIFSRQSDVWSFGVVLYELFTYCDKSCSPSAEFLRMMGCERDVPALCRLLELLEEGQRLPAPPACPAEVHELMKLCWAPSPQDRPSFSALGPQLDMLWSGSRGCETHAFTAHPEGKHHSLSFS
From the text: as §1, §2
as §3, with “equation: […]” for “equation:”

JAK1 = JAK1 (Homo sapiens (Human), UniProt P23458); assay: JAK1 Inhibition Assay (Omnia kinase fluorescence peptide substrate assay)
Sequence of JAK1 (P23458 whole entry): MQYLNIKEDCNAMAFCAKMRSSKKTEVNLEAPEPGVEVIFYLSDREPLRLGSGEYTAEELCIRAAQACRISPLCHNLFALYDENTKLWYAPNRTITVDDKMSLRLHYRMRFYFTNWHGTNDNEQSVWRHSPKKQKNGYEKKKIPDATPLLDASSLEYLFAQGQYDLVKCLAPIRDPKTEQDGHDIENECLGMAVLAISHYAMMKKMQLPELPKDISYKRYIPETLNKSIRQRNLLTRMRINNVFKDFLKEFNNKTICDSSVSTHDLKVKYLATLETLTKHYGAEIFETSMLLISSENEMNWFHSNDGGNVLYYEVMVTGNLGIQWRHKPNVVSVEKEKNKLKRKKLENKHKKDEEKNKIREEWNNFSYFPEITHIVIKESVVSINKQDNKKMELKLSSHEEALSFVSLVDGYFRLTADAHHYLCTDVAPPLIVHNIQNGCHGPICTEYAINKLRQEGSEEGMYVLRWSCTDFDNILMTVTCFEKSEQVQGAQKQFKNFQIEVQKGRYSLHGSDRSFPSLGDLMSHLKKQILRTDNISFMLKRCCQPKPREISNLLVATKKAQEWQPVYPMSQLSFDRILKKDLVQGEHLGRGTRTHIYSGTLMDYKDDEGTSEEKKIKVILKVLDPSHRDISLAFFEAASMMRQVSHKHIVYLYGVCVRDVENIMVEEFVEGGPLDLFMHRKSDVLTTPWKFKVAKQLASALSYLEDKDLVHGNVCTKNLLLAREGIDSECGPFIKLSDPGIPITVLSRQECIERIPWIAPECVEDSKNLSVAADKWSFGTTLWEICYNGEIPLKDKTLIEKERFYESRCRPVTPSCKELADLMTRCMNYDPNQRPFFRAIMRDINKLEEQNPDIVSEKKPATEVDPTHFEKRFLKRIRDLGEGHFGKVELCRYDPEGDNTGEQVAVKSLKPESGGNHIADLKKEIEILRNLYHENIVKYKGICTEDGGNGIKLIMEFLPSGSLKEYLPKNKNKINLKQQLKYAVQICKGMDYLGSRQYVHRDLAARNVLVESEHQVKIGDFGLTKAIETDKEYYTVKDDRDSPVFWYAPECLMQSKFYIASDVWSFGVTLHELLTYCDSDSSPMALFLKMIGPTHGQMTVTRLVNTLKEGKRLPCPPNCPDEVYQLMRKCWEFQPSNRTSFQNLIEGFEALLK
From the text: as §1, §2, §3, §4, §5, §6
as §7, with “JAK1” for “JAK2”, “8” for “10”, “Y12” for “Y7”, “KPZ3121C;” for “KNZ3071C,”, “12.5” for “4”, “PV4775).” for “PV4288).”

[1] = read-out: JAK2 Enzyme IC50 1 mM ATP, 1 mM ATP, averaged IC50 ranges
[2] = read-out: TYK2 Enzyme IC50 1 mM ATP, 1 mM ATP, averaged IC50 ranges
[3] = JAK1 Enzyme IC50 1 mM ATP, averaged IC50 ranges

Sequence of JAK2 (O60674 whole entry): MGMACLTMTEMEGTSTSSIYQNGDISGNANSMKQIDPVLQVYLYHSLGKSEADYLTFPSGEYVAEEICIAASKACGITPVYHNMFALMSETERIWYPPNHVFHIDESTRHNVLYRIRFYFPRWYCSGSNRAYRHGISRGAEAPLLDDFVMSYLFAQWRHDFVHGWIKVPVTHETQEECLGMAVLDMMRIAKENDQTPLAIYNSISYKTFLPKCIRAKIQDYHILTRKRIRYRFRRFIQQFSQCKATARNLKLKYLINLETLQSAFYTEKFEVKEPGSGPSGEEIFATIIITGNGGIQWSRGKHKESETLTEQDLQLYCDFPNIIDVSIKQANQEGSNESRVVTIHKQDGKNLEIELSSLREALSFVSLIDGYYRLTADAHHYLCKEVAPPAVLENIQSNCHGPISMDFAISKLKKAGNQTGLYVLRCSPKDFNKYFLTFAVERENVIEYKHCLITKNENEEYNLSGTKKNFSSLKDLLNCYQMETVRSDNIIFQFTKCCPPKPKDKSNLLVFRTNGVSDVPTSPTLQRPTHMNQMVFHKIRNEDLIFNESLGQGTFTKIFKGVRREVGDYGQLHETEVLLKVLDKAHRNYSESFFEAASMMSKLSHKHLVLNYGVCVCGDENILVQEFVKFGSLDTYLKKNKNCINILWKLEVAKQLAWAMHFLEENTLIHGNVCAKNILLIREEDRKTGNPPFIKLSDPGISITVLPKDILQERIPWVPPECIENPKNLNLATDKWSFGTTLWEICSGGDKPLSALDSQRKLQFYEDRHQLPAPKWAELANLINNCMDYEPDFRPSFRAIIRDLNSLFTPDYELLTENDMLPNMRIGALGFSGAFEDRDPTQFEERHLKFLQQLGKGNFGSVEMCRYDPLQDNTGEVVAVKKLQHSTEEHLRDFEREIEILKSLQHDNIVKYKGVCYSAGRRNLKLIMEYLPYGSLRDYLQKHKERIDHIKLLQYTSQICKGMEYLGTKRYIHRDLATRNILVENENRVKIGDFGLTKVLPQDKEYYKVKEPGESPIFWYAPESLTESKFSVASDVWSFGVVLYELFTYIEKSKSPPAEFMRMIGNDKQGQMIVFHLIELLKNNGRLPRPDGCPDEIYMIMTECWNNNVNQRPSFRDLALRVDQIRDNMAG

Row | IC50 (JAK2; [1]) | IC50 (Human Tyk2 kinase domain; [2]) | Compound | other results
1 | < 10 nM |  | CCC(CC)n1cc(-c2nc(-c3cnn(C4CCN(C(=O)NC)CC4)c3)cn3nccc23)cn1 [Example 34, N-methyl-4-(4-(4-(1-(pentan-3-yl)-1H-pyrazol-4-yl)pyrazolo[1,5-a]pyrazin-6-yl)-1H-pyrazol-1-yl)piperidine-1-carboxamide] | 
2 | < 10 nM | < 10 nM | CCC(CC)n1cc(-c2nc(-c3cnn(C4CCN(S(C)(=O)=O)CC4)c3)cn3nccc23)cn1 [Example 32, 6-(1-(1-(methylsulfonyl)piperidin-4-yl)-1H-pyrazol-4-yl)-4-(1-(pentan-3-yL)-1H-pyrazol-4-yl)pyrazolo[1,5-a]pyrazine] | 
3 |  |  | CCC(CC)n1cc(-c2nc(-c3cnn([C@H]4CC[C@@H](O)CC4)c3)cn3nccc23)cn1 [Example 121, cis-4-(4-(4-(1-(pentan-3-yl)-1H-pyrazol-4-yl)pyrazolo[1,5-a]pyrazin-6-yl)-1H-pyrazol-1-yl)cyclohexanol] | IC50 (JAK3): 1000 to 10000 nM
4 | < 10 nM | < 10 nM | CCC(CC)n1cc(-c2nc(-c3cnn(C4CCN(C(=O)COC)CC4)c3)cn3nccc23)cn1 [Example 33, 2-methoxy-1-(4-(4-(4-(1-(pentan-3-yl)-1H-pyrazol-4-yl)pyrazolo[1,5-a]pyrazin-6-yl)-1H-pyrazol-1-yl)piperidin-1-yl)ethanone] | 
5 | < 10 nM |  | CCC(CC)n1cc(-c2nc(-c3cnn(C4CS(=O)(=O)C4)c3)cn3nccc23)cn1 [Example 13, 3-(4-(4-(1-(pentan-3-yl)-1H-pyrazol-4-yl)pyrazolo[1,5-a]pyrazin-6-yl)-1H-pyrazol-1-yl)thietane 1,1-dioxide] | 
6 | 10 to 100 nM |  | CCC(CC)n1cc(-c2nc(-c3cnn([C@@H]4C[C@@H](O)[C@@H](O)C4)c3)cn3nccc23)cn1 [Example 132, (1R,2S,4s)-4-(4-(4-(1-(pentan-3-yl)-1H-pyrazol-4-yl)pyrazolo[1,5-a]pyrazin-6-yl)-1H-pyrazol-1-yl)cyclopentane-1,2-diol] | IC50 (JAK1; read-out: JAK1 Enzyme IC50 1 mM ATP, averaged IC50 ranges): 100 to 1000 nM
7 | < 10 nM | < 10 nM | CCC(CC)n1cc(-c2nc(-c3cnn(C4CCN(C(=O)CN)CC4)c3)cn3nccc23)cn1 [Example 36, 2-amino-1-(4-(4-(4-(1-(pentan-3-yl)-1H-pyrazol-4-yl)pyrazolo[1,5-a]pyrazin-6-yl)-1H-pyrazol-1-yl)piperidin-1-yl)ethanone] | 
8 | 1000 to 10000 nM |  | CC1(C)CCC[C@@H]1n1cc(-c2nc(-c3cnn(C[C@@H](O)CO)c3)cn3nccc23)cn1 [Example 95, (R)-3-(4-(4-(1-((S)-2,2-dimethylcyclopentyl)-1H-pyrazol-4-yl)pyrazolo[1,5-a]pyrazin-6-yl)-1H-pyrazol-1-yl)propane-1,2-diol] | 
9 |  | < 10 nM | CCC(CC)n1cc(-c2nc(-c3cnn(C4CN(C(=O)C(C)(C)O)C4)c3)cn3nccc23)cn1 [Example 176, 2-hydroxy-2-methyl-1-(3-(4-(4-(1-(pentan-3-yl)-1H-pyrazol-4-yl)pyrazolo[1,5-a]pyrazin-6-yl)-1H-pyrazol-1-yl)azetidin-1-yl)propan-1-one] | 
10 | 10 to 100 nM |  | CC[C@H](C1CC1)n1cc(-c2nc(-c3cnn(C[C@@H](O)CO)c3)cn3nccc23)cn1 (single isomer, unassigned) [Example 213] | 
11 | < 10 nM |  | CC[C@@H](C)n1cc(-c2nc(-c3cnn(C(CO)CO)c3)cn3nccc23)cn1 [Example 85, (R)-2-(4-(4-(1-(sec-butyl)-1H-pyrazol-4-yl)pyrazolo[1,5-a]pyrazin-6-yl)-1H-pyrazol-1-yl)propane-1,3-diol] | 
12 |  |  | CCC(CC)n1cc(-c2nc(-c3cnn([C@@H]4CCC[C@@H]4O)c3)cn3nccc23)cn1 [Example 189, (1S,2R)-2-(4-(4-(1-(pentan-3-yl)-1H-pyrazol-4-yl)pyrazolo[1,5-a]pyrazin-6-yl)-1H-pyrazol-1-yl)cyclopentanol] | IC50 (Human Tyk2 kinase domain): 10 to 100 nM; IC50 (JAK1; [3]): 1000 to 10000 nM; IC50 (JAK2): 10 to 100 nM
13 |  | < 10 nM | CCC[C@H](C)n1cc(-c2nc(-c3cnn(C[C@H](O)CO)c3)cn3nccc23)cn1 [Example 86, (S)-3-(4-(4-(1-((S)-pentan-2-yl)-1H-pyrazol-4-yl)pyrazolo[1,5-a]pyrazin-6-yl)-1H-pyrazol-1-yl)propane-1,2-diol] | 
14 |  |  | CCC(CC)n1cc(-c2nc(-c3cnn(C4CC(C(N)=O)C4)c3)cn3nccc23)cn1 (centres unmarked) [Example 168, (1s,3s)-3-(4-(4-(1-(pentan-3-yl)-1H-pyrazol-4-yl)pyrazolo[1,5-a]pyrazin-6-yl)-1H-pyrazol-1-yl)cyclobutanecarboxamide] | IC50 (JAK1; [3]): 1000 to 10000 nM
15 |  |  | CCC(CC)n1cc(-c2nc(-c3cnn([C@H]4CC[C@H](O)CC4)c3)cn3nccc23)cn1 [Example 118, trans-4-(4-(4-(1-(pentan-3-yl)-1H-pyrazol-4-yl)pyrazolo[1,5-a]pyrazin-6-yl)-1H-pyrazol-1-yl)cyclohexanol] | IC50 (JAK3): 1000 to 10000 nM
16 |  | < 10 nM | CCC(CC)n1cc(-c2nc(-c3cnn(C4CN(C(=O)C5(O)CC5)C4)c3)cn3nccc23)cn1 [Example 177, (1-hydroxycyclopropyl)(3-(4-(4-(1-(pentan-3-yl)-1H-pyrazol-4-yl)pyrazolo[1,5-a]pyrazin-6-yl)-1H-pyrazol-1-yl)azetidin-1-yl)methanone] | 
17 | < 10 nM |  | CCC(CC)n1cc(-c2nc(-c3cnn(C4CCN(C(C)=O)CC4)c3)cn3nccc23)cn1 [Example 31, 1-(4-(4-(4-(1-(pentan-3-yl)-1H-pyrazol-4-yl)pyrazolo[1,5-a]pyrazin-6-yl)-1H-pyrazol-1-yl)piperidin-1-yl)ethanone] | 
